The text below walks through data of US12583852B2, “Heterocycle derivative” (JW PHARMACEUTICAL CORPORATION, priority 2018, dated 2026).

This assay concerns human dermal papilla cells. Put plainly: Promotion of proliferation of human dermal papilla cells (CellTiter-Glo Luminescent cell viability assay). Type of assay: cell-based. The following applies: human dermal papilla cells (ScienCell, 2499); drug 0 to 30 μM; 48 hours; CellTiter-Glo luminescence; compared to DMSO-treated control group. The protocol: The effect of promoting cell proliferation by the drug was analyzed using human dermal papilla cells (ScienCell, 2499). Human dermal papilla cells cultured using Mesenchymal Stem Cell Medium (ScienCell, 7501) medium were seeded at a density of 3×10^3 cells/well and in a volume of 100 μl in a 96-well plate, incubated overnight at 37° C. and 5% CO2, treated with the drug at different concentrations ranging from 0 to 30 μM in a volume of 100 μL, and incubated at 37° C. and 5% CO2 for 48 hours. CellTiter-Glo Luminescent cell viability assay was performed according to the manufacturer's protocol (Promega, G7573) to detect cell proliferation. Luminescence was measured using an Envision 2102 multilabeled reader (PerkinElmer) equipment, and the cell proliferation rate was analyzed by the activity of the drug-treated group compared to the DMSO-treated group (control group), which is a solvent of the drug.
“3-chloro-N-(2,3-dihydro-1H-inden-4-yl)-5-fluoro-1H-pyrazolo[3,4-b]pyridin-6-amine [Compound 8]”: the “Maximum DP cell proliferation (%)” value came out at 7.9%.
Turning to `Nc1n[nH]c2nc(Nc3cccc4c3CCC4)c(F)cc12` [Compound 3, N6-(2,3-dihydro-1H-inden-4-yl)-5-fluoro-1H-pyrazolo[3,4-b]pyridine-3,6-diamine], the “Maximum DP cell proliferation (%)” value is given as 23%.
To `Nc1n[nH]c2nc(Nc3cccc4c3CCC4)ccc12` [Compound 4, N6-(2,3-dihydro-1H-inden-4-yl)-1H-pyrazolo[3,4-b]pyridine-3,6-diamine] belongs 4%; to `CC(C)(C)c1cccc(Nc2nc3[nH]nc(N)c3cc2F)c1` [Compound 5, N6-(3-(tert-butyl)phenyl)-5-fluoro-1H-pyrazolo[3,4-b]pyridine-3,6-diamine], 7.4%; to `Cn1ccc2c(Nc3nc4[nH]nc(N)c4cc3F)cccc21` [Compound 6, 5-fluoro-N6-(1-methyl-1H-indol-4-yl)-1H-pyrazolo[3,4-b]pyridine-3,6-diamine], 7%.
To `Nc1n[nH]c2nc(Nc3cccc4c3COC4)c(F)cc12` [Compound 9, N6-(1,3-dihydroisobenzofuran-4-yl)-5-fluoro-1H-pyrazolo[3,4-b]pyridine-3,6-diamine] belongs 2.6%; to `Nc1n[nH]c2nc(Nc3cccc4occc34)c(F)cc12` [Compound 10, N6-(benzofuran-4-yl)-5-fluoro-1H-pyrazolo[3,4-b]pyridine-3,6-diamine], 13%.
Consider `Cc1cccc(Nc2nc3[nH]nc(N)c3cc2F)c1C` [Compound 12, N6-(2,3-dimethylphenyl)-5-fluoro-1H-pyrazolo[3,4-b]pyridine-3,6-diamine], for which the “Maximum DP cell proliferation (%)” value is listed as 5.4%.
In the case of `CCOC(=O)c1cc2c(N)n[nH]c2nc1Nc1cccc2c1CCC2` [Compound 14, ethyl 3-amino-6-((2,3-dihydro-1H-inden-4-yl)amino)-1H-pyrazolo[3,4-b]pyridine-5-carboxylate] it was 5.3%; in that of `Nc1n[nH]c2nc(Nc3cccc4c3CCC4)cnc12` [Compound 15, N6-(2,3-dihydro-1H-inden-4-yl)-1H-pyrazolo[3,4-b]pyrazine-3,6-diamine], 24%; in that of `Nc1n[nH]c2nc(Nc3cccc4c3CCC4)c(C(=O)O)cc12` [Compound 16, 3-amino-6-((2,3-dihydro-1H-inden-4-yl)amino)-1H-pyrazolo[3,4-b]pyridine-5-carboxylic acid], 6.1%.
As for `Cc1c(Cl)c(Nc2cccc3c2CCC3)nc2[nH]nc(N)c12` [Compound 17, 5-chloro-N6-(2,3-dihydro-1H-inden-4-yl)-4-methyl-1H-pyrazolo[3,4-b]pyridine-3,6-diamine], the “Maximum DP cell proliferation (%)” value turned out to be 6%.
To `Cc1ccc(Nc2nc3[nH]nc(N)c3cc2F)cc1C` [Compound 18, N6-(3,4-dimethylphenyl)-5-fluoro-1H-pyrazolo[3,4-b]pyridine-3,6-diamine] belongs 7.8%; to `Nc1n[nH]c2nc(Nc3cccc4c3CCCC4)c(F)cc12` [Compound 19, 5-fluoro-N6-(5,6,7,8-tetrahydronaphthalen-1-yl)-1H-pyrazolo[3,4-b]pyridine-3,6-diamine], 9%.
In the case of `CCCc1cc2c(N)n[nH]c2nc1Nc1cccc2c1CCC2` [Compound 21, N6-(2,3-dihydro-1H-inden-4-yl)-5-propyl-1H-pyrazolo[3,4-b]pyridine-3,6-diamine] it was 3%; in that of `Nc1n[nH]c2nc(Nc3cccc4c3CCC4)c(-c3ccccc3)cc12` [Compound 23, N6-(2,3-dihydro-1H-inden-4-yl)-5-phenyl-1H-pyrazolo[3,4-b]pyridine-3,6-diamine], 5%.
